# Measurements from patent US9018214B2, “Bicyclic heterocycle compounds and their uses in therapy” (Astex Therapeutics Limited, priority 2011, dated 2015).
# Where a name gives a salt, the structure may show the parent alone. Read-outs that look alike come from different tables or passages of the source.
# Columns and labels:
# [1] = target: BIR3 domain of human XIAP (residues 252-350) (Homo sapiens (Human), UniProt P98170); experiment: XIAP in vitro competitive displacement binding assay (fluorescence polarization); conditions: for inhibition at 0.04 µM: 1 h, read-out: IC50 or PI Xiap: PI; for IC50: read-out: IC50 or PI Xiap: IC50
# [2] = target: BIR3 domain of human cIAP-1 (residues 267-363) (Homo sapiens (Human), UniProt Q13490); experiment: cIAP-1 in vitro competitive displacement binding assay (fluorescence polarization; Probe A AVPIK(5&6FAM)-amide or Probe B AbuRPFK(5&6FAM)-amide)
# [3] = test system: EVSA-T (human breast carcinoma); experiment: Anti-proliferative activity, Alamar Blue assay, EVSA-T; type: cell-based; conditions: Homo sapiens
# [4] = 3 h, Probe B, @ 0.012 μM, read-out: IC50 or PI cIAP1: PI
# [5] = EVSA-T, 72 hours, Alamar Blue, read-out: EVSA-T prolif (EC50)
# [6] = Probe B AbuRPFK(5&6FAM)-amide, read-out: IC50 or PI cIAP1: IC50
# [7] = EVSA-T, 72 h, read-out: EVSA-T prolif (EC50)
"EC50 [3, 5] [nM]",SMILES,IC50 [1] [nM],"EC50 [3, 7] [nM]",further results
26,"C[C@@H]1CN(CC(=O)N2CC(C)(C)c3cnc(C(F)(F)c4ccccc4)cc32)[C@@H](Cn2cc(F)cn2)CN1 [Example 176, 1-{6-[Difluoro(phenyl)methyl]-3,3-dimethyl-1H,2H,3H-pyrrolo[3,2-c]pyridin-1-yl}-2-[(2R,5R)-2-[(4-fluoro-1H-pyrazol-1-yl)methyl]-5-methylpiperazin-1-yl]ethan-1-one hydrochloride]",,,"inhibition at 0.04 µM [1]: 52%; inhibition at […] [2, 4]: 70%"
190,"C[C@@H]1CN(CC(=O)N2CC(C)(C)c3cnc(Oc4ccccc4Cl)cc32)[C@@H](CN2CCOC2=O)CN1 [Example 189, 3-{[(2R,5R)-1-{2-[6-(2-Chlorophenoxy)-3,3-dimethyl-1H,2H,3H-pyrrolo[3,2-c]pyridin-1-yl]-2-oxoethyl}-5-methylpiperazin-2-yl]methyl}-1,3-oxazolidin-2-one hydrochloride]",,,"inhibition at 0.04 µM [1]: 70%; IC50 [2, 6]: 14 nM"
200,"COC[C@H]1CN[C@H](C)CN1CC(=O)N1C[C@@](C)(c2cc(C)no2)c2ccc(Cc3ccccc3)cc21 [Example 175, 1-[(3S)-6-Benzyl-3-methyl-3-(3-methyl-1,2-oxazol-5-yl)-2,3-dihydro-1H-indol-1-yl]-2-[(2R,5R)-2-(methoxymethyl)-5-methylpiperazin-1-yl]ethan-1-one hydrochloride]",110,,"IC50 [2]: < 1000 nM; IC50 [2, 6]: 11 nM"
2400,"C[C@@H]1CN(CC(=O)N2CC(C)(C)c3ccc(S(=O)(=O)c4ccccc4)cc32)CCN1 [Example 43, 1-(6-Benzenesulfonyl-3,3-dimethyl-2,3-dihydro-indol-1-yl)-2-((R)-3-methyl-piperazin-1-yl)-ethanone hydrochloride salt]",640,,"IC50 ([2]; Probe A AVPIK(5&6FAM)-amide, read-out: IC50 or PI cIAP1: IC50): 450 nM"
,"COC[C@H]1CN[C@H](C)CN1CC(=O)N1CC(C)(C)c2ccc(S(=O)(=O)N(C)C)cc21 [Example 68, 1-[2-((2R,5R)-2-Methoxymethyl-5-methyl-piperazin-1-yl)-acetyl]-3,3-dimethyl-2,3-dihydro-1H-indole-6-sulfonic acid dimethylamide dihydrochloride salt]",230,6400,"IC50 ([2]; read-out: IC50 or PI cIAP1: IC50): 1200 nM; EC50 ([3]; EVSA-T, 72 h, read-out: EC50, inhibition of cell growth): < 10000 nM"
4800,"C[C@@H]1CN(CC(=O)N2CC3(Cc4ccccc4C3)c3ccc(C#N)cc32)[C@@H](C(=O)N2CCOCC2)CN1 [Example 109, 1′-{2-[(2R,5R)-5-Methyl-2-[(morpholin-4-yl)carbonyl]piperazin-1-yl]acetyl}-1,1′,2′,3-tetrahydro-spiro[indene-2,3′-indole]-6′-carbonitrile, hydrochloride salt]",63,,"IC50 [2, 6]: 150 nM"
10,"C[C@@H]1CN(CC(=O)N2CC(C)(C)c3ncc(Cc4ccccc4F)cc32)[C@@H](CN2CCCC2=O)CN1 [Example 249, 1-{[(2R,5R)-1-(2-{6-[(2-Fluorophenyl)methyl]-3,3-dimethyl-1H,2H,3H-pyrrolo[3,2-b]pyridin-1-yl}-2-oxoethyl)-5-methylpiperazin-2-yl]methyl}pyrrolidin-2-one hydrochloride]",,,"inhibition at 0.04 µM [1]: 56%; inhibition at […] [2, 4]: 90%"
32,"CCCC(F)(F)c1cc2c(cn1)C(C)(C)CN2C(=O)CN1C[C@@H](C)NC[C@@H]1CN1CCOCC1 [Example 239, 1-[6-(1,1-Difluorobutyl)-3,3-dimethyl-1H,2H,3H-pyrrolo[3,2-c]pyridin-1-yl]-2-[(2R,5R)-5-methyl-2-(morpholin-4-ylmethyl)piperazin-1-yl]ethan-1-one hydrochloride]",,,"inhibition at 0.04 µM [1]: 52%; inhibition at […] [2, 4]: 72%"
,"Cc1cnn(C[C@H]2CN[C@H](C)CN2CC(=O)N2CC(C)(C)c3cnc(Cc4ccccc4)cc32)c1 [Example 147, 1-{6-Benzyl-3,3-dimethyl-1H,2H,3H-pyrrolo[3,2-c]pyridin-1-yl}-2-[(2R,5R)-5-methyl-2-[(4-methyl-1H-pyrazol-1-yl)methyl]piperazin-1-yl]ethan-1-one hydrochloride]",,110,inhibition at 0.04 µM [1]: 49%
,"C[C@@H]1CN(CC(=O)N2CC(C)(C)c3ncc(Cc4ccc(F)cc4F)cc32)[C@@H](CN2CCCC2=O)CN1 [Example 199, 1-{[(2R,5R)-1-(2-{6-[(2,4-Difluorophenyl)methyl]-3,3-dimethyl-1H,2H,3H-pyrrolo[3,2-b]pyridin-1-yl}-2-oxoethyl)-5-methylpiperazin-2-yl]methyl}pyrrolidin-2-one dihydrochloride]",63,5.6,
,"C[C@@H]1CN(CC(=O)N2CC(C)(C)c3ncc(Cc4ccc(F)cc4)cc32)[C@@H](CN2CCOCC2)CN1 [Example 234, 1-{6-[(4-Fluorophenyl)methyl]-3,3-dimethyl-1H,2H,3H-pyrrolo[3,2-b]pyridin-1-yl}-2-[(2R,5R)-5-methyl-2-(morpholin-4-ylmethyl)piperazin-1-yl]ethan-1-one dihydrochloride]",74,9.6,
,"C[C@@H]1CN(CC(=O)N2CC(C)(COCc3ccccc3)c3cnc(Cc4ccccc4)cc32)[C@@H](C(=O)N(C)C)CN1 (stereo partly drawn) [Example 104, (2R,5R)-1-(2-{6-Benzyl-3-[(benzyloxy)methyl]-3-methyl-1H,2H,3H-pyrrolo[3,2-c]pyridin-1-yl}-2-oxoethyl)-N,N,5-trimethylpiperazine-2-carboxamide, hydrochloride salt]",,490,"inhibition at 0.01 µM ([2]; 3 h, Probe B, @ 0.01 μM, read-out: IC50 or PI cIAP1: PI): 71%"
,"C[C@@H]1CN(CC(=O)N2CC(C)(C)c3ncc(Cc4ccc(F)cc4)cc32)[C@@H](CN2CC[C@@H](F)C2)CN1 [Example 241, 1-{6-[(4-Fluorophenyl)methyl]-3,3-dimethyl-1H,2H,3H-pyrrolo[3,2-b]pyridin-1-yl}-2-[(2R,5R)-2-{[(3R)-3-fluoropyrrolidin-1-yl]methyl}-5-methylpiperazin-1-yl]ethan-1-one dihydrochloride]",,7.2,"inhibition at […] ([2]; 3 h, read-out: IC50 or PI cIAP1: PI): 98%"
,"C[C@@H]1CN(CC(=O)N2CC(C)(C)c3cnc(Cc4ccccc4)cc32)[C@@H](C(=O)N(C)C)CN1 [Example 99, (2R,5R)-1-(2-{6-Benzyl-3,3-dimethyl-1H,2H,3H-pyrrolo[3,2-c]pyridin-1-yl}-2-oxoethyl)-N,N,5-trimethylpiperazine-2-carboxamide, hydrochloride salt]",,180,"IC50 [2, 6]: 12 nM"
,"COC[C@H]1CN[C@H](C)CN1CC(=O)N1CC(C)(C)c2cnc(Cc3cccc(C#N)c3)cc21 [Example 80, 3-[(1-{2-[(2R,5R)-2-(Methoxymethyl)-5-methylpiperazin-1-yl]acetyl}-3,3-dimethyl-1H,2H,3H-pyrrolo[3,2-c]pyridin-6-yl)methyl]benzonitrile hydrochloride salt]",,780,"IC50 [2, 6]: 33 nM"

SMILES,"EC50 [3, 5] [nM]",IC50 [1] [nM],"EC50 [3, 7] [nM]",further results
"COC[C@H]1CN[C@H](C)CN1CC(=O)N1CC(C)(c2ccccc2)c2ccc(C#N)cc21 (mixture of isomers) [Example 136, 1-{2-[(2R,5R)-2-(Methoxymethyl)-5-methylpiperazin-1-yl]acetyl}-3-methyl-3-phenyl-2,3-dihydro-1H-indole-6-carbonitrile]",2800,110,,
"COC[C@H]1CN[C@H](C)CN1CC(=O)N1C[C@](C)(c2ccccc2)c2ccc(C#N)cc21 [Example 140, (3R)-1-{2-[(2R,5R)-2-(Methoxymethyl)-5-methylpiperazin-1-yl]acetyl}-3-methyl-3-phenyl-2,3-dihydro-1H-indole-6-carbonitrile]",8600,94,,"EC50 ([3]; EVSA-T cell line, 72 hours, Alamar Blue, read-out: EC50, inhibition of cell growth): < 10000 nM"
